Test results from paper PMC11314621, “Cheminformatics-Guided Exploration of Synthetic Marine Natural Product-Inspired Brominated Indole-3-Glyoxylamides and Their Potentials for Drug Discovery” (Molecules, 2024).
Read-outs that look alike come from different tables or passages of the source.

Assays:
[1] = biological target: T1, α-synuclein (Homo sapiens, UniProt P37840); test: In vitro α-synuclein affinity MS-binding assay; conditions: 3 h incubation, 5:1 molar ratio, (+)-HRESIMS
T1 construct: α-synuclein protein solutions (10 μM) were prepared in 10 mM ammonium acetate
Procedure: The synthetic indoles were incubated with α-syn for 3 h at a 5:1 molar ratio, after which a (+)- mode high-resolution MS spectrum was acquired.
α-synuclein protein solutions (10 μM) were prepared in 10 mM ammonium acetate. Synthetic IGAs 25, 26, 34, 41, 45, 46, 51, and 52 (100 μM) were dissolved in 100% MeOH and incubated with α-syn at room temperature for 3 h. Protein-ligand interactions were analysed using (+) HRESIMS calibrated with sodium trifluoroacetate (0.1 mg/mL) with the following parameters: nebuliser 2.0 Bar; dry gas 7 L/min; dry temp 150 °C; funnel I RF 400 Vpp; end plate offset 500 V; capillary 4500 V; ISCID 0.0 ev; ion energy 4.0 eV; transfer time 100 μs; multipole RF 800 Vpp; collision RF 1200 Vpp; prepulse storage 10 μs; spectra rate: 2 × 100 Hz. The resulting spectra were analysed for additional peaks representing complexes formed between α-syn and active compounds.

[2] = tested on: P. falciparum 3D7; test: Antiplasmodial image-based assay, 3D7 strain; type: cell-based, Plasmodium falciparum; conditions: chloroquine-sensitive P. falciparum strain 3D7
Procedure: (§1) An anti-plasmodial imaging assay reported by Duffy and Avery was used to examine the antiplasmodial activities of synthetic indoles 25, 26, 36, 37, 38, 40, 41, 43, 45, 46, 47, 48, 50 and 51. All compounds were diluted to […] in DMSO and tested at three increasing concentrations from 0.4 nM–40 μM per log dose in a 16-point CRC ([…]) parasite strains of Plasmodium falciparum. […] Normalised percent inhibition data was obtained using in-plate positive (4 μM DHA) and negative (0.4% DMSO) controls, which were then used to calculate IC50 values. Compounds were incubated in CellCarrier-384 well imaging plates in the presence of 2% parasitemia (3D7 or Dd2) at 0.3% hematocrit in a total assay volume of 50 μL for 72 h at 37 °C, 5% O2, 5% CO2 and 90% N2. After incubation, plates were stained with 4′,6-diamidino-2-phenylindole (DAPI) and imaged using an Opera Phenix high-content imaging system (Revvity, Mulgrave, Victoria, Australia). Images were analysed using Harmony (Revvity) software (version 3), while percent parasite inhibition was calculated using the minimum (0.4% DMSO) and (DHA). IC50 values were determined by plotting % inhibition against log dose and analysed using nonlinear regression and sigmoidal dose-response using GraphPad Prism version 6.

[3] = tested on: P. falciparum Dd2; test: Antiplasmodial image-based assay, Dd2 strain; type: cell-based, Plasmodium falciparum; conditions: chloroquine-resistant P. falciparum strain Dd2
Procedure: as §1

[4] = tested on: HEK293 cells; test: HEK293 cell cytotoxicity; type: cell-based; conditions: 60 µM, human embryonic kidney cell line
[5] = biological target: T2, SARS-CoV-2 3CLpro (Severe acute respiratory syndrome coronavirus 2, UniProt P0DTD1); test: biochemical
T2 construct: Each well contained 25 nM of SARS-CoV-2 3CL^Pro and eCFP-Venus biosensor (500 nM)

[6] = biological target: T3, porcine pancreatic elastase (Sus scrofa, UniProt P00772); test: Serine protease assay, elastase; type: biochemical; conditions: remaining enzyme activity
T3 construct: high-purity porcine pancreatic elastase (Sigma, Melbourne, Victoria, Australia, E0258); purchased Sigma E0258
T3 sequence (P00772 27-266): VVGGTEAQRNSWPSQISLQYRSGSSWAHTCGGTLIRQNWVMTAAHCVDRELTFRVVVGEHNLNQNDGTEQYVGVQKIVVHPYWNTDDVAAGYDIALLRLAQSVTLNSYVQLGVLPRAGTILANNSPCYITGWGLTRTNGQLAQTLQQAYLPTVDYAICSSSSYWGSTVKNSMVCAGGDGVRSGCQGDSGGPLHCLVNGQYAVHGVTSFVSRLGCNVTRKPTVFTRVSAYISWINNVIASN
Procedure: (§2) Serine protease-inhibitory activities for 25–56 were determined in 96 well plates. Each inhibitor was initially tested in duplicate against elastase and chymotrypsin at 10 µM. […] Assays for the inhibition of elastase were undertaken using high-purity porcine pancreatic elastase (Sigma, Melbourne, Victoria, Australia, E0258) in an assay buffer of 50 mM Tris-HCl (pH 8.0) at room temperature. Dilutions of each inhibitor (originally resuspended in DMSO) were prepared in triplicate and then preincubated with 375 ng of elastase for 15 min at room temperature in a total reaction volume of 85 µL. Following this preincubation, 15 µL of 2 mM N-succinyl-Ala-Ala-Ala-p-nitroanilide (Sigma, S4760) in assay buffer was added to each well and kinetic measurement of absorbance at 405 nm (Tecan Spark Plate Reader, Zürich, Switzerland) was undertaken for 30 min. […] Dilutions of each inhibitor were prepared in triplicate and preincubated with 5 µg of chymotrypsin for 10 min at 37 °C in a total reaction volume of 75 µL. After preincubation, 25 µL of 2 mM N-succinyl-Gly-Gly-Phe-p-nitroanilide (Sigma, S1899) was added to each well and kinetic measurement of absorbance at 405 nm was undertaken for 30 min. Inhibitory activity was determined by comparison of the slope of the reaction curve for multiple dilutions of the inhibitor to that of an equivalent solvent control and expressed as IC50 ± standard deviation.

[7] = biological target: T4, α-chymotrypsin from bovine pancreas (Bos taurus, UniProt P00766); test: Serine protease assay, chymotrypsin; type: biochemical; conditions: for % enzyme activity @ 10 µM, chymotrypsin / remaining activity at 10 µM: remaining enzyme activity; for IC50: IC50 ± standard deviation
T4 construct: α-chymotrypsin from bovine pancreas (Sigma, C4129); purchased Sigma C4129; host or cells: bovine pancreas
Procedure: as §2

[8] = tested on: prion; conditions: cited from earlier work
[9] = biological target: T2, SARS-CoV-2 3CLpro; conditions: cited from earlier work; for inhibition of SARS-CoV-2 3CLPro: ref [33]
[10] = tested on: HIV-1; set-up: method as in PMID 34095843, PMID 30940396; conditions: ref [34],[35]; cited from earlier work
[11] = tested on: protein kinase C; conditions: ref [15]; cited from earlier work
[12] = tested on: elastase; set-up: method as in PMID 37609780; conditions: ref [36]; cited from earlier work

Compound: O=C(N[C@@H](Cc1c[nH]c2ccccc12)C(=O)O)C(=O)c1c[nH]c2ccc(Br)cc12 [Compound 45, 5-bromoindolyl-3-glyoxyl-L-tryptophan]
- binding with α-syn (protein-ligand complexes in MS) [1]: α-syn binding displayed
- % Inhibition @ 60 µM, 3D7 ([2]; 60 µM, 72 h): 73.0%
- % Inhibition @ 60 µM, Dd2 ([3]; 60 µM, 72 h): 56.0%
- % Inhibition @ 60 µM, HEK293 [4]: 24.0%
- % inhibition @ 20 µM, No DTT ([5]; 20 µM, no DTT): 21.8%
- % inhibition @ 20 µM, DTT ([5]; 20 µM, with DTT (4 mM)): 3.7%
- % enzyme activity @ 10 µM, elastase [6]: 94.0%
- % enzyme activity @ 10 µM, chymotrypsin [7]: 69.2%
- IC50 [7]: 16.3 µM

Compound: purealidine Q
- anti-prion activity in a yeast-based assay [8]: micromolar anti-prion activities

Compound: O=C(N[C@@H](Cc1ccc(O)cc1)C(=O)O)C(=O)c1c[nH]c2cc(Br)ccc12 [Compound 51, 6-bromoindolyl-3-glyoxyl-L-tyrosine]
- binding with α-syn (protein-ligand complexes in MS) [1]: α-syn binding displayed
- % Inhibition @ 60 µM, 3D7 ([2]; 60 µM, 72 h): 58.0%
- % Inhibition @ 60 µM, Dd2 ([3]; 60 µM, 72 h): 56.0%
- % Inhibition @ 60 µM, HEK293 [4]: 21.5%
- % inhibition @ 20 µM, No DTT ([5]; 20 µM, no DTT): 23.3%
- % inhibition @ 20 µM, DTT ([5]; 20 µM, with DTT (4 mM)): 6.9%
- % enzyme activity @ 10 µM, elastase [6]: 100.3%
- % enzyme activity @ 10 µM, chymotrypsin [7]: 91.8%

Compound: COc1ccc(C/C(=N\O)C(=O)NCCc2cc(Br)c(OCCCN(C)C)c(Br)c2)cc1Br [Compound 57, aplysamine-2]
- anti-prion activity in a yeast-based assay ([8]; ref [25]): micromolar anti-prion activities

Compound: O=C[C@H](C[C@@H]1CCNC1=O)NC(=O)[C@H](Cc1cccc(F)c1)NC(=O)c1cc2ccccc2[nH]1 [Compound 63]
- inhibition of SARS-CoV-2 3CLPro [9]: nanomolar inhibition

Compound: O=C(C(=O)N1CCN(C(=O)c2ccccc2)CC1)c1c[nH]c2ccccc12 [Compound 64]
- inhibition of HIV-1 [10]: nanomolar inhibition

Compound: O=C(N[C@H](Cc1ccc(O)cc1)C(=O)O)C(=O)c1c[nH]c2cc(Br)ccc12 [Compound 52, 6-bromoindolyl-3-glyoxyl-D-tyrosine]
- binding with α-syn (protein-ligand complexes in MS) [1]: α-syn binding displayed
- % inhibition @ 20 µM, No DTT ([5]; 20 µM, no DTT): 14.0%
- % inhibition @ 20 µM, DTT ([5]; 20 µM, with DTT (4 mM)): 4.9%
- % enzyme activity @ 10 µM, elastase [6]: 97.1%
- % enzyme activity @ 10 µM, chymotrypsin [7]: 97.2%

Compound: CO[C@@H]1[C@H](NC(=O)C(=O)c2c[nH]c3ccccc23)C[C@H]2O[C@]1(C)n1c3ccccc3c3c4c(c5c6ccccc6n2c5c31)C(=O)NC4 [Compound 13, 13G-291]
- protein kinase C inhibition [11]: only weak inhibition

Compound: O=C(N[C@H](Cc1c[nH]c2ccccc12)C(=O)O)C(=O)c1c[nH]c2ccc(Br)cc12 [Compound 46, 5-bromoindolyl-3-glyoxyl-D-tryptophan]
- binding with α-syn (protein-ligand complexes in MS) [1]: α-syn binding displayed
- inhibition at 60 µM ([2]; Plasmodium falciparum, 3D7, 72 h, 60 µM, 72 h): ~100%
- IC50 ([2]; Plasmodium falciparum): 7.4 µM
- % Inhibition @ 60 µM, Dd2 ([3]; 60 µM, 72 h): 97.5%
- inhibition at 60 µM ([3]; Plasmodium falciparum, DD2, 72 h, 60 µM, 72 h): ~100%
- IC50 ([3]; Plasmodium falciparum): 8.2 µM
- inhibition at 60 µM ([4]; HEK293): 21.5%
- inhibition at 20 µM ([5]; read-out: % inhibition @ 20 µM, DTT): 2.5%
- inhibition at 20 µM ([5]; read-out: % inhibition @ 20 µM, No DTT): 27.4%
- remaining activity at 10 µM [6]: 90.9%
- remaining activity at 10 µM [7]: 47.7%
- IC50 [7]: 6.3 µM

Compound: CC[C@H](C)[C@@H]1NC(=O)[C@H](CC(C)C)NC(=O)[C@@H](N2C(=O)N[C@@H](C)C2=O)CNC(=O)[C@H](CS(=O)(=O)O)NC(=O)/C=C/c2csc(n2)[C@H](Cc2ccc(O)cc2)NC(=O)C1=O [Compound 66, cyclotheonellazole D]
- change of SARS-CoV-2 3CLPro inhibition in the presence of DTT ([9]; DTT (4 mM) versus no DTT, ref [36]): more than eightfold reduction
- elastase inhibition [12]: nanomolar potent inhibitor

Compound: O=C[C@H](C[C@@H]1CCNC1=O)NC(=O)[C@H](CC1CCCCC1)NC(=O)c1cc2ccccc2[nH]1 [Compound 62]
- inhibition of SARS-CoV-2 3CLPro [9]: nanomolar inhibition

Compound: O=C(N[C@@H](CSSC[C@H](NC(=O)C(=O)c1c[nH]c2cc(Br)ccc12)C(=O)O)C(=O)O)C(=O)c1c[nH]c2cc(Br)ccc12 [Compound 34, 6-bromoindolyl-3-glyoxyl-L-cystine]
- binding with α-syn (protein-ligand complexes in MS) [1]: α-syn binding displayed
- inhibition at 20 µM ([5]; 20 µM, no DTT, read-out: % inhibition @ 20 µM, No DTT): 86.1%
- inhibition at 20 µM ([5]; 20 µM, with DTT (4 mM), read-out: % inhibition @ 20 µM, DTT): 4.6%
- IC50 ([5]; no DTT): 6.4 µM
- remaining activity at 10 µM [6]: 93.5%
- remaining activity at 10 µM [7]: 93.1%

Compound: C[C@@H]1CN(C(=O)c2ccccc2)CCN1C(=O)C(=O)c1c[nH]c2ccccc12 [Compound 65]
- inhibition of HIV-1 [10]: nanomolar inhibition
